Data: ChEMBL document CHEMBL1177805, “AMP-activated protein kinase (AMPK) activators from Myristica fragrans (nutmeg) and their anti-obesity effect” (Bioorg Med Chem Lett, 2010)
Calls of active or inactive are those of the source. The rule behind the calls is not given here.

Target: 5'-AMP-activated protein kinase catalytic subunit alpha-2 (Mus musculus) (UniProt Q8BRK8)
Assay: Activation of AMPK in mouse […] cells at 5 uM by Western blotting
Format: cell-based

Chain of 5'-AMP-activated protein kinase catalytic subunit alpha-2 (Mus musculus) (Q8BRK8 whole entry): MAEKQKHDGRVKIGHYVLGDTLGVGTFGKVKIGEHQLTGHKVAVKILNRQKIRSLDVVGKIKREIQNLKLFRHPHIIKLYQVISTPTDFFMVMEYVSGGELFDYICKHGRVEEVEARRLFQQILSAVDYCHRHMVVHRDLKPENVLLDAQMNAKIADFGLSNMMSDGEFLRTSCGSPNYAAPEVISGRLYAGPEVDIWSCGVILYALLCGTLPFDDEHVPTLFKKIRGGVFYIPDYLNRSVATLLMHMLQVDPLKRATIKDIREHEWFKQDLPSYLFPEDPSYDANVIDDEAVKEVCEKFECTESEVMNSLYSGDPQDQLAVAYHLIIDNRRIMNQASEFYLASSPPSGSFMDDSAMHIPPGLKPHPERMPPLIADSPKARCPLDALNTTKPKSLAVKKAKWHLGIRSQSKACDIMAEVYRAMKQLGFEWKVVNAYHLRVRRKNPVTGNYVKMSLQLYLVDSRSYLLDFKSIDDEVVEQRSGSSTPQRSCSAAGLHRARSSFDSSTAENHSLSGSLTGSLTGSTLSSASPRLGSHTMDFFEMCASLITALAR

Activity | SMILES
Active | COc1cc([C@H]2O[C@@H](c3ccc(O)c(OC)c3)[C@@H](C)[C@H]2C)ccc1O
Active | COc1cc([C@H]2O[C@@H](c3ccc(O)c(OC)c3)[C@H](C)[C@@H]2C)ccc1O
